The source of these data is paper PMC8187357 (Communications Biology, 2021).

“And” between values parts separate entries of the source, which are not always exact repeats. Equal values may be shown once. Residues, ends and D or L forms follow the SMILES beside them.

For series [1], the system named is CT26 colon carcinoma. The experiment in a line: CT26 model, survival in combination with cyclophosphamide. The series is classed as in vivo, mouse. Also noted: key to Survival data: 0: Censored; Death or tumor volume more than 10% of body weight. To be noted: Vehicle+CTX, individual animals. As for the experimental part: (§1) Studies in syngeneic models including B16 melanoma metastasis model and CT26 colon carcinoma subcutaneous model were performed as described. For the Docetaxel combination experiment in CT26 model, indicated dosage of docetaxel (Source: Docetere® injection by Dr Reddy’s Laboratories) was dosed intraperitoneally to animals. For the CA-170 combination groups, CA-170 (10 mg/kg/day, oral) was dosed ~10 min after docetaxel. Animal grouping, treatment efficacy assessment and %TGI calculations were performed as mentioned above. For the CT26 experiment with cyclophosphamide, 100 mg/kg of cyclophosphamide was dosed once on day 5 intraperitoneally after cell implantation (first day of dosing for all other groups). Anti-PD1 antibody (Clone J43 from BioXcel) was dosed intraperitoneally at 100 µg/animal once every week.

Another series has as its target T1, PD-L1 (Mus musculus, UniProt Q9EP73).
T1 construct: purchased R&D Systems 1019-B7-100
The series can be described thus: Rescue of PD-L1 mediated inhibition of proliferation, mouse splenocytes. It counts as cell-based. To be noted: splenocyte-based assay. As for the experimental part:
The ability of peptides, peptidomimetics, and small molecules were analyzed for their ability to rescue T-cell proliferation or IFN-γ release from the inhibitory activity of PD-L1 or PD-L2 in a splenocyte/PBMC-based functional assay as per the protocols reported in publication. […] For all in vitro assays, test agent stock was prepared in water and diluted further in the assay media to achieve test concentrations. Each experimental condition was carried out in triplicates. Percent rescue for a given test compound concentration was calculated by normalizing individual percent test agent proliferation or IFN-γ release values to percent anti-CD3 and anti-CD28 antibodies stimulated proliferation or IFN-γ release. EC50 values were derived by plotting transformed data into non-linear fit in sigmoidal dose–response curve using GraphPad Prism software (Version 7).

A short description of a further series: Pharmacokinetics in mice. It counts as in vivo, mouse. To be noted: mouse, in vivo. As for the experimental part:
Animals in Group 1 were administered with 5% w/v dextrose in water and Group 2 were administered with corresponding formulation listed in the Supplementary Table 6 through oral routes. Blood samples (approximately 40 μl) were collected under light isoflurane anesthesia from submandibular at predose, 0.08 (IV), 0.25, 0.5, 1, 2, 4, 8, and 24 h using sparse sampling technique. Plasma samples were separated by centrifugation of whole blood and stored below −70 °C until bioanalysis. All samples were processed for analysis by protein precipitation and analyzed with fit-for-purpose LC–MS/MS method.

Series [2] deals with CT26 colon carcinoma. The experiment in a line: CT26 model, combination with docetaxel. The series is classed as in vivo, mouse. To be noted: for TGI: CT26 in Balb/c mice, 12 days; for Individual tumor volumes: individual animals. The method, then:
as §1

T1 sequence (Q9EP73 with tags, fused parts or gaps limits assumed): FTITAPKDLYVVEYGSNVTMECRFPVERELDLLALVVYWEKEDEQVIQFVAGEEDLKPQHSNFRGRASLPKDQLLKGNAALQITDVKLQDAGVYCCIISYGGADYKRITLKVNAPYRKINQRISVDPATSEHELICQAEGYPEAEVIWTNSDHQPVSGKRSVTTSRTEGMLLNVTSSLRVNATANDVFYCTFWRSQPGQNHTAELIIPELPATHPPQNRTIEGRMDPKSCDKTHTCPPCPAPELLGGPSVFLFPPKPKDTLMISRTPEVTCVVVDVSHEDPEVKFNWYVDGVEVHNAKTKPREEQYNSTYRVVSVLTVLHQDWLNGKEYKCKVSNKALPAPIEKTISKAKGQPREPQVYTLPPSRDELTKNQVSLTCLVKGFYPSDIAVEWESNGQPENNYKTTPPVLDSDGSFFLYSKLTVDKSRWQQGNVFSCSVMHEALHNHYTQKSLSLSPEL

As for `O=P1(N(CCCl)CCCl)NCCCO1` (stereo not shown) [CTX], the Survival data in the series with CT26 colon carcinoma [1] (day 1 of treatment) is 0; in the series with CT26 colon carcinoma [1] (day 3 of treatment), 0; in the series on CT26 colon carcinoma [1] (day 6 of treatment) it was 0; with CT26 colon carcinoma [1] (day 8 of treatment), 0; in the series with CT26 colon carcinoma [1] (day 10 of treatment), 0; in the series on CT26 colon carcinoma [1] (day 12 of treatment), 1 and 0. For the same molecule, the Survival data in the series on CT26 colon carcinoma [1] (day 14 of treatment) is 1 and 0; in the series on CT26 colon carcinoma [1] (day 15 of treatment), 0.

As usually defined, the EC50 is the midpoint of the concentration-response curve. On PD-L1, `C[C@@H](O)[C@H](NC(=O)[C@H](CC(N)=O)NC(=O)[C@@H](N)CO)C(=O)O` [PM-116] (H-Ser-Asn-Thr-OH; N-terminus and C-terminus assumed) registered an EC50 of 6 nM.

As a reminder, the AUC is the area under the concentration-time curve, a measure of exposure. The term clearance denotes the rate of elimination divided by the concentration. Broadly, the bioavailability is the share of a dose that reaches the circulation, judged against a reference dose that is usually intravenous. A word on the Cmax: it is the maximum level reached in the sampled fluid or tissue. `C[C@@H](O)[C@@H]1NC(=O)[C@H](CC(N)=O)NC(=O)[C@H](CO)NC(=O)[C@H](Cc2ccccc2)NC(=O)[C@H](CO)NC(=O)[C@H](CCC(=O)O)NC(=O)[C@H](CO)NC1=O` [PM-823] (HELM PEPTIDE1{E.S.F.S.N.T.S}$PEPTIDE1,PEPTIDE1,1:R1-7:R2$$$V2.0) displayed an EC50 on PD-L1 of 55 nM. Moreover, in “Pharmacokinetics in mice” (iv, 1 mg/kg), the AUC was found to be 2180 ng·h/mL and the clearance was 22.9 mL/min/kg. Further, in “Pharmacokinetics in mice” (po), the bioavailability was 6.8% and the “oral bioavailability (in words)” value was “not orally bioavailable”. Moreover, in the series “Pharmacokinetics in mice” (po, 30 mg/kg), the AUC was 495 ng·h/mL and the Cmax is 554 ng/mL.

Take `CC(=O)O[C@@]12CO[C@@H]1C[C@H](O)[C@@]1(C)C(=O)[C@H](O)C3=C(C)[C@@H](OC(=O)[C@H](O)[C@@H](NC(=O)OC(C)(C)C)c4ccccc4)C[C@@](O)([C@@H](OC(=O)c4ccccc4)[C@H]21)C3(C)C` [docetaxel]: the TGI with CT26 colon carcinoma [2] (single agent docetaxel 1 mg/kg) amounted to 44%; with CT26 colon carcinoma [2] (single agent docetaxel 10 mg/kg) it was 43%. Further, the Individual tumor volumes in the series with CT26 colon carcinoma [2] (Docetaxel 1mg/kg, day 1 of treatment) was 22.15 mm3 and 31.55 mm3 and 34.9 mm3 and 45.07 mm3 and 50.49 mm3 and 58.82 mm3 and 62.62 mm3 and 76.97 mm3 and 88.69 mm3; in the series with CT26 colon carcinoma [2] (Docetaxel 1mg/kg, day 4 of treatment), 46.4 mm3 and 28.72 mm3 and 78.5 mm3 and 62.65 mm3 and 97.03 mm3 and 124.03 mm3 and 118.17 mm3 and 67.74 mm3 and 149.61 mm3; in the series with CT26 colon carcinoma [2] (Docetaxel 1mg/kg, day 6 of treatment), 132.42 mm3 and 19.09 mm3 and 90.17 mm3 and 95.74 mm3 and 164.49 mm3 and 224.32 mm3 and 158.95 mm3 and 86.49 mm3 and 198.71 mm3; in the series with CT26 colon carcinoma [2] (Docetaxel 1mg/kg, day 8 of treatment), 186.57 mm3 and 10.93 mm3 and 133.19 mm3 and 151.25 mm3 and 260.04 mm3 and 385.2 mm3 and 276.47 mm3 and 199.1 mm3 and 392.38 mm3; in the series with CT26 colon carcinoma [2] (Docetaxel 1mg/kg, day 11 of treatment), 263.17 mm3 and 22.61 mm3 and 143.19 mm3 and 316.97 mm3 and 451.22 mm3 and 764.37 mm3 and 562.88 mm3 and 301.78 mm3 and 690.4 mm3; with CT26 colon carcinoma [2] (Docetaxel 10mg/kg, day 1 of treatment), 22.87 mm3 and 29.49 mm3 and 35.8 mm3 and 43.1 mm3 and 51.4 mm3 and 57.21 mm3 and 63.02 mm3 and 74.99 mm3 and 92.42 mm3. Also, the Individual tumor volumes in the series with CT26 colon carcinoma [2] (Docetaxel 10mg/kg, day 4 of treatment) is 54.41 mm3 and 32.56 mm3 and 76.21 mm3 and 71.86 mm3 and 73.1 mm3 and 87.77 mm3 and 117.98 mm3 and 93.45 mm3 and 48.5 mm3; in the series on CT26 colon carcinoma [2] (Docetaxel 10mg/kg, day 6 of treatment), 109.48 mm3 and 42.16 mm3 and 129.37 mm3 and 103.08 mm3 and 111.56 mm3 and 155.23 mm3 and 165.2 mm3 and 163.17 mm3 and 79.31 mm3; in the series on CT26 colon carcinoma [2] (Docetaxel 10mg/kg, day 8 of treatment) it was 163.72 mm3 and 98.83 mm3 and 244.12 mm3 and 203.26 mm3 and 199.06 mm3 and 316.02 mm3 and 316.69 mm3 and 217.54 mm3 and 105.3 mm3; in the series with CT26 colon carcinoma [2] (Docetaxel 10mg/kg, day 11 of treatment) it was 322.31 mm3 and 251.42 mm3 and 447.21 mm3 and 378.85 mm3 and 332.62 mm3 and 662.99 mm3 and 641.53 mm3 and 377.51 mm3 and 200.96 mm3.
